Laboratory results published in PubChem BioAssay AID1918958 (Molecular Pharmacology Branch, DTP, NCI, 2023).
Where “and” joins values, the source holds several entries; their conditions need not be identical. Identical values can stand only once.

System: NCI-H196 complex spheroid viability
Assay: Anticancer human tumor NCI-H196 cell line growth inhibition [LSD1];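 note: spheroids exposed to agents for 7 days before readout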;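 for viability, T/C: 100% = DMSO vehicle control viability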
Settings: for viability, T/C: stronger effect = lower value
Summary of the method: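 Complex spheroids of tumor cells with HUVEC and human MSCs, exposed to iadademstat combined with other agents. Each agent tested in half-log steps from near clinical Cmax (else 10 microM top), DMSO ≤0.25%.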

[1] = curve of first compound, second compound 0.1 µM
[2] = curve of first compound, second compound 0.316 µM
[3] = curve of first compound, second compound 1 µM
[4] = curve of first compound, second compound 3.16 µM
[5] = curve of first compound, second compound 10 µM

## CCc1c2c(nc3ccc(O)cc13)-c1cc3c(c(=O)n1C2)COC(=O)[C@]3(O)CC + NC1CCC(NC2CC2c2ccccc2)CC1
[1]
  IC50: 10 nM
[2]
  IC50: 9.56 nM
[3]
  IC50: 11 nM
[4]
  IC50: 10.1 nM
[5]
  IC50: 11.4 nM
Second compound 0.1 µM, first compound 0.000949 µM
  viability, T/C: 113%
Second compound 0.1 µM, first compound 0.003 µM
  viability, T/C: 104%
Second compound 0.1 µM, first compound 0.00949 µM
  viability, T/C: 52.8%
Second compound 0.1 µM, first compound 0.03 µM
  viability, T/C: 3.31%
Second compound 0.1 µM, first compound 0.0949 µM
  viability, T/C: 0.73%
Second compound 0.1 µM, first compound 0.3 µM
  viability, T/C: 1.14%
Second compound 0.316 µM, first compound 0.000949 µM
  viability, T/C: 123%
Second compound 0.316 µM, first compound 0.003 µM
  viability, T/C: 104%
Second compound 0.316 µM, first compound 0.00949 µM
  viability, T/C: 52.5%
Second compound 0.316 µM, first compound 0.03 µM
  viability, T/C: 3.77%
Second compound 0.316 µM, first compound 0.0949 µM
  viability, T/C: 1.18%
Second compound 0.316 µM, first compound 0.3 µM
  viability, T/C: 0.82%
Second compound 1 µM, first compound 0.000949 µM
  viability, T/C: 120%
Second compound 1 µM, first compound 0.003 µM
  viability, T/C: 111%
Second compound 1 µM, first compound 0.00949 µM
  viability, T/C: 57.1%
Second compound 1 µM, first compound 0.03 µM
  viability, T/C: 2.51%
Second compound 1 µM, first compound 0.0949 µM
  viability, T/C: 0.62%
Second compound 1 µM, first compound 0.3 µM
  viability, T/C: 0.86%
Second compound 3.16 µM, first compound 0.000949 µM
  viability, T/C: 109%
Second compound 3.16 µM, first compound 0.003 µM
  viability, T/C: 91.2%
Second compound 3.16 µM, first compound 0.00949 µM
  viability, T/C: 55.3%
Second compound 3.16 µM, first compound 0.03 µM
  viability, T/C: 2%
Second compound 3.16 µM, first compound 0.0949 µM
  viability, T/C: 0.56%
Second compound 3.16 µM, first compound 0.3 µM
  viability, T/C: 1.03%
Second compound 10 µM, first compound 0.000949 µM
  viability, T/C: 113%
Second compound 10 µM, first compound 0.003 µM
  viability, T/C: 98.7%
Second compound 10 µM, first compound 0.00949 µM
  viability, T/C: 60.1%
Second compound 10 µM, first compound 0.03 µM
  viability, T/C: 3.63%
Second compound 10 µM, first compound 0.0949 µM
  viability, T/C: 0.8%
Second compound 10 µM, first compound 0.3 µM
  viability, T/C: 0.85%

## CC1(C)CCC(CN2CCN(c3ccc(C(=O)NS(=O)(=O)c4ccc(NCC5CCOCC5)c([N+](=O)[O-])c4)c(Oc4cnc5[nH]ccc5c4)c3)CC2)=C(c2ccc(Cl)cc2)C1
Compound 0.0316 µM
  viability, T/C: 99.4% and 101%
Compound 0.1 µM
  viability, T/C: 104% and 99.2%
Compound 0.316 µM
  viability, T/C: 94.9% and 98.7%
Compound 1 µM
  viability, T/C: 103% and 93.7%
Compound 3.16 µM
  viability, T/C: 86.4% and 94.3%
Compound 10 µM
  viability, T/C: 13% and 20.1%
Curve of compound
  IC50: 5620 nM and 6290 nM

## CC1COCCN1c1cc(C2(S(C)(=N)=O)CC2)nc(-c2ccnc3[nH]ccc23)n1 (centres undefined) + NC1CC1c1ccc(-c2cccc(O)c2)cc1
[1]
  IC50: > 10000 nM
[2]
  IC50: > 10000 nM
[3]
  IC50: > 10000 nM
[4]
  IC50: > 10000 nM
[5]
  IC50: > 10000 nM
Second compound 0.1 µM, first compound 0.0316 µM
  viability, T/C: 97.7%
Second compound 0.1 µM, first compound 0.1 µM
  viability, T/C: 88.3%
Second compound 0.1 µM, first compound 0.316 µM
  viability, T/C: 92.2%
Second compound 0.1 µM, first compound 1 µM
  viability, T/C: 89.1%
Second compound 0.1 µM, first compound 3.16 µM
  viability, T/C: 73.9%
Second compound 0.1 µM, first compound 10 µM
  viability, T/C: 63.6%
Second compound 0.316 µM, first compound 0.0316 µM
  viability, T/C: 97.3%
Second compound 0.316 µM, first compound 0.1 µM
  viability, T/C: 95.8%
Second compound 0.316 µM, first compound 0.316 µM
  viability, T/C: 88%
Second compound 0.316 µM, first compound 1 µM
  viability, T/C: 89.6%
Second compound 0.316 µM, first compound 3.16 µM
  viability, T/C: 77.1%
Second compound 0.316 µM, first compound 10 µM
  viability, T/C: 64.5%
Second compound 1 µM, first compound 0.0316 µM
  viability, T/C: 98.2%
Second compound 1 µM, first compound 0.1 µM
  viability, T/C: 93.1%
Second compound 1 µM, first compound 0.316 µM
  viability, T/C: 108%
Second compound 1 µM, first compound 1 µM
  viability, T/C: 89.2%
Second compound 1 µM, first compound 3.16 µM
  viability, T/C: 67.7%
Second compound 1 µM, first compound 10 µM
  viability, T/C: 62%
Second compound 3.16 µM, first compound 0.0316 µM
  viability, T/C: 103%
Second compound 3.16 µM, first compound 0.1 µM
  viability, T/C: 96.8%
Second compound 3.16 µM, first compound 0.316 µM
  viability, T/C: 93.9%
Second compound 3.16 µM, first compound 1 µM
  viability, T/C: 85.6%
Second compound 3.16 µM, first compound 3.16 µM
  viability, T/C: 70.2%
Second compound 3.16 µM, first compound 10 µM
  viability, T/C: 61.5%
Second compound 10 µM, first compound 0.0316 µM
  viability, T/C: 94.8%
Second compound 10 µM, first compound 0.1 µM
  viability, T/C: 102%
Second compound 10 µM, first compound 0.316 µM
  viability, T/C: 93%
Second compound 10 µM, first compound 1 µM
  viability, T/C: 91.6%
Second compound 10 µM, first compound 3.16 µM
  viability, T/C: 71.3%
Second compound 10 µM, first compound 10 µM
  viability, T/C: 64.3%

## CC1COCCN1c1cc(-c2ccnn2C)c2ccnc(-c3ccn[nH]3)c2n1 (centres undefined)
Compound 0.00316 µM
  viability, T/C: 77.7% and 75.2%
Compound 0.01 µM
  viability, T/C: 77.9% and 70%
Compound 0.0316 µM
  viability, T/C: 64.6% and 70%
Compound 0.1 µM
  viability, T/C: 65.4% and 57.1%
Compound 0.316 µM
  viability, T/C: 55.8% and 53.1%
Compound 1 µM
  viability, T/C: 47.5% and 46.9%
Curve of compound
  IC50: 724 nM and 543 nM
